According to patent US10155750B2, “Amidoethyl azole orexin receptor antagonists” (Merck Sharp & Dohme Corp., priority 2014, dated 2018):

Legend:
human orexin-2 receptor = human orexin-2 receptor (Homo sapiens (Human), UniProt O43614); assay: FLIPR Ca2+ flux assay, hOX2R; format: cell-based; conditions: CHO cells expressing the receptor; agonist 70 pM Ala-6,12 human orexin-A
Method: The utility of the compounds in accordance with the present invention as orexin receptor OX1R and/or OX2R antagonists may be readily determined without undue experimentation by methodology well known in the art, including the “FLIPR Ca^2+ Flux Assay” (Okumura et al., Biochem. Biophys. Res. Comm. 280:976-981, 2001). In a typical experiment the OX1 and OX2 receptor antagonistic activity of the compounds of the present invention was determined in accordance with the following experimental method. For intracellular calcium measurements, Chinese hamster ovary (CHO) cells expressing the rat orexin-1 receptor or the human orexin-2 receptor, are grown in Iscove's modified DMEM containing 2 mM L-glutamine, […], 1% hypoxanthine-thymidine supplement, 100 U/ml penicillin, 100 μg/ml streptomycin and 10% heat-inactivated fetal calf serum (FCS). The cells are seeded at 20,000 cells/well into Becton-Dickinson black 384-well clear bottom sterile plates coated with poly-D-lysine. All reagents were from GIBCO-Invitrogen Corp. The seeded plates are incubated overnight at 37° C. and 5% CO2. Ala-6,12 human orexin-A as the agonist is prepared as a 1 mM stock solution in 1% bovine serum albumin (BSA) and diluted in assay buffer (HBSS containing 20 mM HEPES, 0.1% BSA and 2.5 mM probenecid, pH7.4) for use in the assay at a final concentration of 70 pM. Test compounds are prepared as 10 mM stock solution in DMSO, then diluted in 384-well plates, first in DMSO, then assay buffer. On the day of the assay, cells are washed 3 times with 100 μl assay buffer and then incubated for 60 min (37° C., 5% CO2) in 60 μl assay buffer containing 1 μM Fluo-4AM ester, 0.02% pluronic acid, and 1% BSA. The dye loading solution is then aspirated and cells are washed 3 times with 100 μl assay buffer. 30 μl of that same buffer is left in each well. Within the Fluorescent Imaging Plate Reader (FLIPR, Molecular Devices), test compounds are added to the plate in a volume of 25 μl, incubated for 5 min and finally 25 μl of agonist is added. Fluorescence is measured for each well at 1 second intervals for 5 minutes and the height of each fluorescence peak is compared to the height of the fluorescence peak induced by 70 pM Ala-6,12 orexin-A with buffer in place of antagonist. For each antagonist, IC50 value (the concentration of compound needed to inhibit 50% of the agonist response) is determined. Alternatively, compound potency can be assessed by a radioligand binding assay (described in Bergman et. al. Bioorg. Med. Chem. Lett. 2008, 18, 1425-1430) in which the inhibition constant (Ki) is determined in membranes prepared from CHO cells expressing either the OX1 or OX2 receptor. The intrinsic orexin receptor antagonist activity of a compound which may be used in the present invention may be determined by these assays.

[1] = molecular target: hOX1R (orexin-1 receptor) (Homo sapiens, UniProt O43613); assay: FLIPR Ca2+ flux assay, hOX1R; format: cell-based; conditions: CHO cells expressing the receptor; agonist 70 pM Ala-6,12 human orexin-A

human orexin-2 receptor, sequence (O43614 whole entry): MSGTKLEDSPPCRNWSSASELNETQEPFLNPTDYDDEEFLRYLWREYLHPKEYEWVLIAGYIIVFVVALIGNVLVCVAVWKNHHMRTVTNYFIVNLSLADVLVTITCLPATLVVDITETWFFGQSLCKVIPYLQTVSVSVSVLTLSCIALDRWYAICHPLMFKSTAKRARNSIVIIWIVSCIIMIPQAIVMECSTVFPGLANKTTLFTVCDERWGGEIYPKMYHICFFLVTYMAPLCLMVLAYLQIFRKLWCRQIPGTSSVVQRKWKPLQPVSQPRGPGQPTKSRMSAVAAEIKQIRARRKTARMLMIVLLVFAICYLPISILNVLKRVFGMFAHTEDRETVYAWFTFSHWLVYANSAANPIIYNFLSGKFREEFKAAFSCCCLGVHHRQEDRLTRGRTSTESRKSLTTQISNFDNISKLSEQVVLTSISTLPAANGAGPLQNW

Row | SMILES | IC50 (human orexin-2 receptor) [nM] | IC50 [1] [nM]
1 | CCN(CCn1ncc(C(C)(C)O)n1)C(=O)c1ccccc1-n1nccn1 [Example 1, N-Ethyl-N-(2-(4-(2-hydroxypropan-2-yl)-2H-1,2,3-triazol-2-yl)ethyl)-2-(2H-1,2,3-triazol-2-yl)benzamide] | 58 | > 10000
2 | CCN(CCn1ncc(C(C)(O)CC)n1)C(=O)c1ccccc1-n1nccn1 (centres unmarked) [Example 2, N-Ethyl-N-(2-(4-(2-hydroxybutan-2-yl)-2H-1,2,3-triazol-2-yl)ethyl)-2-(2H-1,2,3-triazol-2-yl)benzamide] | 65 | > 10000
3 | CCN(CCn1ncc(C(C)O)n1)C(=O)c1ccccc1-n1nccn1 (centres unmarked) [Example 3, N-Ethyl-N-(2-(4-(1-hydroxyethyl)-2H-1,2,3-triazol-2-yl)ethyl)-2-(2H-1,2,3-triazol-2-yl)benzamide] | 373 | > 10000
4 | CCN(CCn1ncc(C(C)(C)O)n1)C(=O)c1ccccc1C1CC1 [Example 4, 2-Cyclopropyl-N-ethyl-N-(2-(4-(2-hydroxypropan-2-yl)-2H-1,2,3-triazol-2-yl)ethyl)benzamide] | 47 | > 10000
5 | CCN(CCn1ncc(C(C)(C)O)n1)C(=O)c1ccccc1N1CCCC1 [Example 5, N-ethyl-N-(2-(4-(2-hydroxypropan-2-yl)-2H-1,2,3-triazol-2-yl)ethyl)-2-(pyrrolidin-1-yl)benzamide] | 41 | > 10000
6 | CCN(CCn1ncc(C(C)(C)O)n1)C(=O)c1ccccc1SC(F)(F)F [Example 11, N-ethyl-N-(2-(4-(2-hydroxypropan-2-yl)-2H-1,2,3-triazol-2-yl)ethyl)-2-((trifluoromethyl)thio)benzamide] | 34 | > 10000
7 | CCN(CCn1ncc(C(C)(C)O)n1)C(=O)c1ccccc1OC(F)(F)F [Example 12, N-ethyl-N-(2-(4-(2-hydroxypropan-2-yl)-2H-1,2,3-triazol-2-yl)ethyl)-2-(trifluoromethoxy)benzamide] | 247 | > 10000
8 | CCN(CCn1ncc(C(C)(C)O)n1)C(=O)c1ccccc1OC(C)C [Example 18, N-ethyl-N-(2-(4-(2-hydroxypropan-2-yl)-2H-1,2,3-triazol-2-yl)ethyl)-2-isopropoxybenzamide] | 145 | > 10000
9 | CCN(CCn1nc(C)c(C(C)(C)O)n1)C(=O)c1ccccc1-n1nccn1 [Example 20, N-Ethyl-N-(2-(4-(2-hydroxypropan-2-yl)-5-methyl-2H-1,2,3-triazol-2-yl)ethyl)-2-(2H-1,2,3-triazol-2-yl)benzamide] | 12 | 2860
10 | CCN(CCn1nc(C)c(C(C)(C)O)n1)C(=O)c1cccnc1OCC(F)(F)F [Example 21, N-Ethyl-N-(2-(4-(2-hydroxypropan-2-yl)-5-methyl-2H-1,2,3-triazol-2-yl)ethyl)-2-(2,2,2-trifluoroethoxy)nicotinamide] | 21 | > 10000
11 | CCN(CCn1nc(C)c(C(C)(C)O)n1)C(=O)c1cccnc1OC(C)C [Example 22, N-ethyl-N-(2-(4-(2-hydroxypropan-2-yl)-5-methyl-2H-1,2,3-triazol-2-yl)ethyl)-2-isopropoxynicotinamide] | 61 | > 10000
12 | CCOc1ncccc1C(=O)N(CC)CCn1nc(C)c(C(C)(C)O)n1 [Example 23, 2-ethoxy-N-ethyl-N-(2-(4-(2-hydroxypropan-2-yl)-5-methyl-2H-1,2,3-triazol-2-yl)ethyl)nicotinamide] | 58 | > 10000
13 | CCN(CCn1nc(C)c(C(C)(C)O)n1)C(=O)c1cccnc1OCC(F)F [Example 24, 2-(2,2-difluoroethoxy)-N-ethyl-N-(2-(4-(2-hydroxypropan-2-yl)-5-methyl-2H-1,2,3-triazol-2-yl)ethyl)nicotinamide] | 44 | > 10000
14 | CCN(CCn1nc(C)c(C(C)(C)O)n1)C(=O)c1ccccc1OC(F)F [Example 25, 2-(difluoromethoxy)-N-ethyl-N-(2-(4-(2-hydroxypropan-2-yl)-5-methyl-2H-1,2,3-triazol-2-yl)ethyl)benzamide] | 35 | > 10000
15 | CCN(CCn1nc(C)c(C(C)(C)O)n1)C(=O)c1ccccc1OC(F)(F)F [Example 26] | 19 | > 10000
16 | CCOc1ccccc1C(=O)N(CC)CCn1nc(C)c(C(C)(C)O)n1 [Example 27, 2-ethoxy-N-ethyl-N-(2-(4-(2-hydroxypropan-2-yl)-5-methyl-2H-1,2,3-triazol-2-yl)ethyl)benzamide] | 27 | > 10000
17 | CCN(CCn1nc(C)c(C(C)(C)O)n1)C(=O)c1ccccc1C1CC1 [Example 28, 2-cyclopropyl-N-ethyl-N-(2-(4-(2-hydroxypropan-2-yl)-5-methyl-2H-1,2,3-triazol-2-yl)ethyl)benzamide] | 13 | 1560
18 | CCN(CCn1nc(C)c(C(C)(C)O)n1)C(=O)c1ccccc1-n1cccn1 [Example 29, N-ethyl-N-(2-(4-(2-hydroxypropan-2-yl)-5-methyl-2H-1,2,3-triazol-2-yl)ethyl)-2-(1H-pyrazol-1-yl)benzamide] | 28 | > 10000
19 | CCN(CCn1nc(C)c(C(C)(C)O)n1)C(=O)c1ccc(F)cc1-n1nccn1 [Example 30, N-ethyl-4-fluoro-N-(2-(4-(2-hydroxypropan-2-yl)-5-methyl-2H-1,2,3-triazol-2-yl)ethyl)-2-(2H-1,2,3-triazol-2-yl)benzamide] | 10 | 5540
20 | CCN(CCn1nc(C)c(C(C)(C)O)n1)C(=O)c1cccnc1-c1ccccc1 [Example 31, N-ethyl-N-(2-(4-(2-hydroxypropan-2-yl)-5-methyl-2H-1,2,3-triazol-2-yl)ethyl)-2-phenylnicotinamide] | 33 | > 10000
21 | CCCc1ccccc1C(=O)N(CC)CCn1nc(C)c(C(C)(C)O)n1 [Example 32, N-ethyl-N-(2-(4-(2-hydroxypropan-2-yl)-5-methyl-2H-1,2,3-triazol-2-yl)ethyl)-2-propylbenzamide] | 32 | 2210
22 | CCN(CCn1nc(C)c(C(C)(C)O)n1)C(=O)c1ccccc1OCC(F)(F)F [Example 33, N-ethyl-N-(2-(4-(2-hydroxypropan-2-yl)-5-methyl-2H-1,2,3-triazol-2-yl)ethyl)-2-(2,2,2-trifluoroethoxy) benzamide] | 52 | > 10000
23 | CCN(CCn1nc(C)c(C(C)(C)O)n1)C(=O)c1ccccc1CC(F)(F)F [Example 34, N-ethyl-N-(2-(4-(2-hydroxypropan-2-yl)-5-methyl-2H-1,2,3-triazol-2-yl)ethyl)-2-(2,2,2-trifluoroethyl) benzamide] | 37 | > 10000
24 | CCN(CCn1nc(C)c(C(C)(C)O)n1)C(=O)c1ccccc1OCC(F)F [Example 35, 2-(2,2-difluoroethoxy)-N-ethyl-N-(2-(4-(2-hydroxypropan-2-yl)-5-methyl-2H-1,2,3-triazol-2-yl)ethyl)benzamide] | 35 | > 10000
25 | CCN(CCn1nc(C)c(C(C)(C)O)n1)C(=O)c1cccnc1CC(F)(F)F [Example 36, N-ethyl-N-(2-(4-(2-hydroxypropan-2-yl)-5-methyl-2H-1,2,3-triazol-2-yl)ethyl)-2-(2,2,2-trifluoroethyl) nicotinamide] | 270 | > 10000
26 | CCN(CCn1nc(C)c(C(C)(C)O)n1)C(=O)c1ccccc1CC(F)F [Example 37, 2-(2,2-difluoroethyl)-N-ethyl-N-(2-(4-(2-hydroxypropan-2-yl)-5-methyl-2H-1,2,3-triazol-2-yl)ethyl)benzamide] | 10 | > 10000
27 | CCN(CCn1nc(C)c(C(C)(C)O)n1)C(=O)c1ccccc1C1CC1(F)F (centres unmarked) [Example 38, 2-(2,2-difluorocyclopropyl)-N-ethyl-N-(2-(4-(2-hydroxypropan-2-yl)-5-methyl-2H-1,2,3-triazol-2-yl)ethyl)benzamide] | 10 | 1480
28 | CCN(CCn1nc(C)c(C(C)(C)O)n1)C(=O)c1ccc(OC)nc1C1CC1 [Example 39, 2-cyclopropyl-N-ethyl-N-(2-(4-(2-hydroxypropan-2-yl)-5-methyl-2H-1,2,3-triazol-2-yl)ethyl)-6-methoxynicotinamide] | 14 | 2840
